Consider one molecule from patent publication US7198803B2, “Sustained release oral preparations” (Nippon Shinyaku Co., Ltd., priority 2000, dated 2007).

Series [1] in a line: plasma half life of the drug. The following applies: in vivo.
For series [2], the system named is calcium-sensitive potassium channel. The following applies: known from PCT WO99/36068; cited from earlier work.

For `Cc1c(-c2ccccc2F)[nH]c(N)c1C#N` [2-amino-3-cyano-5-(2-fluorophenyl)-4-methylpyrrole], the plasma half life entry in series [1] is “short plasma half life”. Moreover, the “potassium channel activating effect” value in series [2] is reported as “bladder-selective calcium-sensitive potassium channel activating effect”.
